For 39 compounds, melting point results are on record in patent publication US6403586B1, “Pyridazine derivatives and drugs containing the same as the active ingredient” (Kowa Co., Ltd., priority 1998, dated 2002).

Where “and” joins values, the source holds several entries; their conditions need not be identical. Equal values may be shown once.

The melting point is the temperature of the solid-liquid transition. On to `COC(=O)c1cc(-c2ccc(OC)cc2)nn(C)c1=O` [Example 1, 4-Methoxycarbonyl-6-(4-methoxyphenyl)-2-methyl-2H-pyridazin-3-one], for which the melting point lay within 109.2 to 109.5 °C. Regarding `CCCn1nc(-c2ccc(OC)cc2)cc(C(=O)OC)c1=O` [Example 4, 4-Methoxycarbonyl-6-(4-methoxyphenyl)-2-n-propyl-2H-pyridazin-3-one], the melting point was 106.5 to 107.1 °C and 104.8 to 105.8 °C. In the case of `CCOC(=O)c1cc(-c2ccc(OC)cc2)nn(C(C)C)c1=O` [Example 9, 4-Ethoxycarbonyl-2-isopropyl-6-(4-methoxyphenyl)-2H-pyridazin-3-one], the melting point is 140.6 to 141.1 °C. To `CCOC(=O)c1cc(-c2ccc(OC)cc2)nn(CC(C)C)c1=O` [Example 10, 4-Ethoxycarbonyl-2-isobutyl-6-(4-methoxyphenyl)-2H-pyridazin-3-one] belongs 83 to 83.3 °C; to `COC(=O)c1cc(-c2ccc(OC)c(OC)c2)nn(CC(C)C)c1=O` [Example 11, 6-(3,4-Dimethoxyphenyl)-2-isobutyl-4-methoxycarbonyl-2H-pyridazin-3-one], 104.2 to 105.5 °C; to `COC(=O)c1cc(-c2ccc(OC)c(F)c2)nn(CC(C)C)c1=O` [Example 12, 6-(3-Fluoro-4-methoxyphenyl)-2-isobutyl-4-methoxycarbonyl-2H-pyridaz in-3-one], 153.3 to 154.9 °C. `CCOC(=O)c1cc(-c2ccc(OC)cc2)nn(CC2CC2)c1=O` [Example 16, 2-Cyclopropylmethyl-4-ethoxycarbonyl-6-(4-methoxyphenyl)-2H-pyridazin-3-one] yielded a melting point of 80.1 to 80.9 °C.

With `COC(=O)c1cc(-c2ccc(OC)c(OC)c2)nn(CC2CC2)c1=O` [Example 17, 2-Cyclopropylmethyl-6-(3,4-dimethoxyphenyl)-4-methoxycarbonyl-2H-pyridazin-3-one], the melting point fell in the range of 136.5 to 137.3 °C.

In turn, `COC(=O)c1cc(-c2ccc(OC)c(F)c2)nn(CC2CC2)c1=O` [Example 18, 2-Cyclopropylmethyl-6-(3-fluoro-4-methoxyphenyl)-4-methoxycarbonyl-2H-pyridazin-3-one] came in with a melting point of 139.6 to 140.7 °C. For the compound `COC(=O)c1cc(-c2ccc(SC)cc2)nn(CC2CC2)c1=O` [Example 20, 2-Cyclopropylmethyl-4-methoxycarbonyl-6-[4-(methylthio)phenyl]-2H-pyridazin-3-one], the melting point lay within 100.2 to 101.8 °C.

For `CCOC(=O)c1cc(-c2ccc(OC)cc2)nn(Cc2ccc(Cl)cc2Cl)c1=O` [Example 24, 2-(2,4-Dichlorobenzyl)-4-ethoxycarbonyl-6-(4-methoxyphenyl)-2H-pyridazin-3-one], the melting point is 135.7 to 136.3 °C. To `COC(=O)c1cc(-c2ccc(OC)cc2)nn(Cc2ccc(N)cc2)c1=O` [Example 26, 2-(4-Aminobenzyl)-4-methoxycarbonyl-6-(4-methoxyphenyl)-2H-pyridazin-3-one] belongs 160 to 161.9 °C; to `COC(=O)c1cc(-c2ccc(OC)cc2)nn(Cc2ccc(NC(=O)c3cccnc3)cc2)c1=O` [Example 27, 4-Methoxycarbonyl-6-(4-methoxyphenyl)-2-[4-(3-pyridylcarbonylamino)benzyl]-2H-pyridazin-3-one], 235.7 to 236.9 °C (dec.); to `CCOC(=O)c1cc(-c2ccc(OC)cc2)nn(CC=Cc2ccc(Cl)cc2)c1=O` [Example 31, 2-(4-Chlorocinnamyl)-4-ethoxycarbonyl-6-(4-methoxyphenyl)-2H-pyridazin-3-one], 127 to 127.9 °C. Then `COC(=O)c1cc(-c2ccc(OC)c(OC)c2)nn(CC=Cc2ccc(Cl)cc2)c1=O` [Example 32, 2-(4-Chlorocinnamyl)-6-(3,4-dimethoxyphenyl)-4-methoxycarbonyl-2H-pyridazin-3-one], with 117.5 to 118.7 °C; and `COC(=O)c1cc(-c2ccc(OC)c(F)c2)nn(CC=Cc2ccc(Cl)cc2)c1=O` [Example 33, 2-(4-Chlorocinnamyl)-6-(3-fluoro-4-methoxyphenyl)-4-methoxycarbonyl-2H-pyridazin-3-one], with 131.3 to 132.3 °C. The compound `COC(=O)c1cc(-c2ccc(OC)c(Cl)c2)nn(CC=Cc2ccc(Cl)cc2)c1=O` [Example 34, 2-(4-Chlorocinnamyl)-6-(3-chloro-4-methoxyphenyl)-4-methoxycarbonyl-2H-pyridazin-3-one] had a melting point of 179.7 to 181.6 °C.

The compound `COC(=O)c1cc(-c2ccc(SC)cc2)nn(CC=Cc2ccc(Cl)cc2)c1=O` [Example 35, 2-(4-Chlorocinnamyl)-4-methoxycarbonyl-6-[4-(methylthio)phenyl]-2H-pyridazin-3-one] came in with a melting point of 123.3 to 126.2 °C. Regarding `COc1ccc(-c2cc(C(N)=O)c(=O)n(CC3CC3)n2)cc1` [Example 39, 4-Carbamoyl-2-cyclopropylmethyl-6-(4-methoxyphenyl)-2H-pyridazin-3-one], the melting point fell in the range of 182.2 to 183.3 °C. On to `COc1ccc(-c2cc(C(N)=O)c(=O)n(CC3CCCC3)n2)cc1` [Example 40, 4-Carbamoyl-2-cyclopentylmethyl-6-(4-methoxyphenyl)-2H-pyridazin-3-one], for which the melting point fell in the range of 182.2 to 183.3 °C. `COc1ccc(-c2cc(C(N)=O)c(=O)n(CC=Cc3ccc(Cl)cc3)n2)cc1` [Example 42, 4-Carbamoyl-2-(4-chlorocinnamyl)-6-(4-methoxyphenyl)-2H-pyridazin-3-one] yielded a melting point of 195.1 to 195.5 °C. For `CNC(=O)c1cc(-c2ccc(OC)cc2)nn(CC#N)c1=O` [Example 46, 2-Cyanomethyl-6-(4-methoxyphenyl)-4-methylcarbamoyl-2H-pyridazin-3-one], the melting point was 153.4 to 154.9 °C. To `CNC(=O)Cn1nc(-c2ccc(OC)cc2)cc(C(=O)NC)c1=O` [Example 47, 6-(4-Methoxyphenyl)-4-methylcarbamoyl-2-methylcarbamoylmethyl-2H-pyridazin-3-one] belongs 250.1 to 250.8 °C. Then `CNC(=O)c1cc(-c2ccc(OC)cc2)nn(CCO)c1=O` [Example 49, 2-(2-Hydroxyethyl)-6-(4-methoxyphenyl)-4-methylcarbamoyl-2H-pyridazin-3-one], with 160.3 to 160.6 °C.

As to `CNC(=O)c1cc(-c2ccc(OC)cc2)nn(C(C)C)c1=O` [Example 52, 2-Isopropyl-6-(4-methoxyphenyl)-4-methylcarbamoyl-2H-pyridazin-3-one], the melting point lay within 154 to 154.3 °C. Then `CNC(=O)c1cc(-c2ccc(OC)c(OC)c2)nn(CC(C)C)c1=O` [Example 53, 6-(3,4-Dimethoxyphenyl)-2-isobutyl-4-methylcarbamoyl-2H-pyridazin-3-one], with 111.4 to 112.6 °C; and `CNC(=O)c1cc(-c2ccc(OC)cc2)nn(CC=C(C)C)c1=O` [Example 57, 6-(4-Methoxyphenyl)-2-(3-methyl-2-butenyl)-4-methylcarbamoyl-2H-pyridazin-3-one], with 103.6 to 104 °C; and `CNC(=O)c1cc(-c2ccc(OC)cc2)nn(CC(=O)NCc2ccccn2)c1=O` [Example 58, 6-(4-Methoxyphenyl)-4-methylcarbamoyl-2-(2-pyridylmethyl)carbamoylmethyl-2H-pyridazin-3-one], with 194.7 to 195.8 °C.

Take `CNC(=O)c1cc(-c2ccc(OC)cc2)nn(CC(=O)NCCO)c1=O` [Example 59, 2-(2-Hydroxyethyl)carbamoylmethyl-6-(4-methoxyphenyl)-4-methylcarbamoyl-2H-pyridazin-3-one]: the melting point lay in the range of 240.2 to 241.2 °C. Then `CNC(=O)c1cc(-c2ccc(SC)cc2)nn(CC2CC2)c1=O` [Example 65, 2-Cyclopropylmethyl-4-methylcarbamoyl-6-[4-(methylthio)phenyl]-2H-pyridazin-3-one], with 116.5 to 118 °C. Then `CCCNC(=O)c1cc(-c2ccc(OC)cc2)nn(CC2CC2)c1=O` [Example 67, 2-Cyclopropylmethyl-6-(4-methoxyphenyl)-4-n-propylcarbamoyl-2H-pyridazin-3-one], with 101.3 to 101.6 °C; and `COc1ccc(-c2cc(C(=O)NCc3ccccc3)c(=O)n(CC3CC3)n2)cc1` [Example 68, 4-Benzylcarbamoyl-2-cyclopropylmethyl-6-(4-methoxyphenyl)-2H-pyridazin-3-one], with 119.7 to 120.1 °C.

In the case of `COc1ccc(-c2cc(C(=O)NCc3ccccn3)c(=O)n(CC3CC3)n2)cc1` [Example 69, 2-Cyclopropylmethyl-6-(4-methoxyphenyl)-4-(2-pyridylmethyl)carbamoyl-2H-pyridazin-3-one], the melting point lay within 98.6 to 99.3 °C. Take `COc1ccc(-c2cc(C(=O)Nc3ccncc3)c(=O)n(CC3CC3)n2)cc1` [Example 70, 2-Cyclopropylmethyl-6-(4-methoxyphenyl)-4-(4-pyridyl)carbamoyl-2H-pyridazin-3-one]: the melting point was 181.3 to 181.5 °C. For the compound `COc1ccc(-c2cc(C(=O)Nc3ccccc3)c(=O)n(CC3CC3)n2)cc1` [Example 71, 2-Cyclopropylmethyl-6-(4-methoxyphenyl)-4-phenylcarbamoyl-2H-pyridazin-3-one], the melting point was in the range of 162.8 to 163.3 °C. As to `CNC(=O)c1cc(-c2ccc(OC)cc2)nn(CC2CCCC2)c1=O` [Example 72, 2-Cyclopentylmethyl-6-(4-methoxyphenyl)-4-methylcarbamoyl-2H-pyridazin-3-one], the melting point was 107.4 to 107.8 °C.

As to `CCCNC(=O)c1cc(-c2ccc(OC)cc2)nn(CC2CCCC2)c1=O` [Example 74, 2-Cyclopentylmethyl-6-(4-methoxyphenyl)-4-n-propylcarbamoyl-2H-pyridazin-3-one], the melting point lay in the range of 109.9 to 110.2 °C. To `COc1ccc(-c2cc(C(=O)NCc3ccccc3)c(=O)n(CC3CCCC3)n2)cc1` [Example 75, 4-Benzylcarbamoyl-2-cyclopentylmethyl-6-(4-methoxyphenyl)-2H-pyridazin-3-one] belongs 107.6 to 108.1 °C; to `COc1ccc(-c2cc(C(=O)NCc3ccccn3)c(=O)n(CC3CCCC3)n2)cc1` [Example 76, 2-Cyclopentylmethyl-6-(4-methoxyphenyl)-4-(2-pyridylmethyl)carbamoyl-2H-pyridazin-3-one], 126.6 to 127.5 °C.
